Key:
[1] = Inhibition of capsid protein VP1 in Enterovirus 71 (FY)-Luc infected in human RD cells assessed as reduction in virus-induced cell death preincubated for 24 hrs followed by […] substrate addition and measured after 5 mins by chemiluminescence analysis; type: cell-based, Enterovirus A71; conditions: Enterovirus A
[2] = Cytotoxicity against human RD cells assessed as reduction in cell viability incubated for 24 hrs by MTT assay; conditions: RD cells
[3] = Acute toxicity in juvenile zebrafish assessed as fatality rate at 200 uM after 24 hrs; conditions: in vivo
[4] = Acute toxicity in juvenile zebrafish assessed as fatality rate at 20 uM after 24 hrs; conditions: in vivo
[5] = Acute toxicity in juvenile zebrafish assessed as fatality rate at 50 uM after 24 hrs; conditions: in vivo
[6] = Acute toxicity in juvenile zebrafish assessed as fatality rate at 100 uM after 24 hrs; conditions: in vivo
[7] = Acute toxicity in juvenile zebrafish assessed as fatality rate at 20 uM after 48 hrs; conditions: in vivo
[8] = Acute toxicity in juvenile zebrafish assessed as fatality rate at 50 uM after 48 hrs; conditions: in vivo
[9] = Acute toxicity in juvenile zebrafish assessed as fatality rate at 100 uM after 48 hrs; conditions: in vivo
[10] = Acute toxicity in juvenile zebrafish assessed as fatality rate at 200 uM after 48 hrs; conditions: in vivo
in vivo [11] = conditions: zebrafish
Description: Acute toxicity in juvenile zebrafish assessed as fatality rate at 150 uM after 24 hrs

in vivo [12] = conditions: zebrafish; remark: listed apart in the source
Description: Acute toxicity in juvenile zebrafish assessed as fatality rate at 150 uM after 48 hrs

[13] = Acute toxicity in juvenile zebrafish assessed as pericarditis at 100 uM after 24 hrs; parameters: species or system Danio rerio; conditions: in vivo

| Structure (SMILES) | EC50 [1] [nM] | CC50 at 24 h [2] [µM] | mortality at 24 h, 200 µM [3] [%] | mortality at 24 h, 20 µM [4] [%] | mortality at 24 h, 50 µM [5] [%] | mortality at 24 h, 100 µM [6] [%] | mortality at 48 h, 20 µM [7] [%] | mortality at 48 h, 50 µM [8] [%] | mortality at 48 h, 100 µM [9] [%] | mortality at 48 h, 200 µM [10] [%] | mortality at 24 h, 150 µM (in vivo [11]) [%] | mortality at 48 h, 150 µM (in vivo [12]) [%] | Activity [13] |
| --- | --- | --- | --- | --- | --- | --- | --- | --- | --- | --- | --- | --- | --- |
| CCc1nc(-c2cc(C)c(OCCC(C)CCN3CCN(c4ccnc(N)c4)C3=O)c(C)c2)no1 (stereo not given) | > 25 | 15.7 | – | – | – | – | – | – | – | – | – | – | – |
| CCO/N=C/c1ccc(OCCC(C)CCN2CCN(c3ccnc(O)c3)C2=O)cc1 (stereo not given) | > 25 | > 100 | – | – | – | – | – | – | – | – | – | – | – |
| CCO/N=C/c1ccc(OCCC(C)CCN2CCN(c3cccc(N)c3)C2=O)cc1 (stereo not given) | > 25 | > 100 | – | – | – | – | – | – | – | – | – | – | – |
| CCc1nc(-c2ccc(OCCC(C)CCN3CCN(c4ccnc(N)c4)C3=O)cc2)no1 (stereo not given) | 0.0084 | > 100 | 100 | 40 | 10 | 30 | 60 | 100 | 100 | 100 | 80 | 100 | – |
| CCO/N=C/c1ccc(OCCC(C)CCN2CCN(c3ccccc3)C2=O)cc1 (stereo not given) | 1.12 | > 100 | 100 | 100 | 100 | 100 | 100 | 100 | 100 | 100 | 100 | 100 | – |
| CCO/N=C/c1cc(C)c(OCCC(C)CCN2CCN(c3ccnc(N)c3)C2=O)c(C)c1 (stereo not given) | > 25 | 12.8 | – | – | – | – | – | – | – | – | – | – | – |
| CC(CCOc1ccc(/C=N/O)cc1)CCN1CCN(c2ccnc(N)c2)C1=O (stereo not given) | > 25 | > 100 | – | – | – | – | – | – | – | – | – | – | – |
| CCCc1nc(-c2ccc(OCCC(C)CCN3CCN(c4ccnc(N)c4)C3=O)cc2)no1 (stereo not given) | 0.15 | > 100 | 100 | 40 | 100 | 100 | 60 | 100 | 100 | 100 | 100 | 100 | – |
| CC(CCOc1ccc(-c2noc(C(F)(F)F)n2)cc1)CCN1CCN(c2ccnc(N)c2)C1=O (stereo not given) | 0.537 | 48.1 | 100 | 0 | 30 | 70 | 0 | 50 | 100 | 100 | 80 | 100 | – |
| CC(=O)Nc1cc(N2CCN(CCCCCOc3ccc(-c4noc(C)n4)cc3)C2=O)ccn1 | > 25 | > 100 | – | – | – | – | – | – | – | – | – | – | – |
| CC(CCN1CCN(Cc2ccccc2)CC1)CCN1CCN(c2ccnc(N)c2)C1=O (stereo not given) | > 25 | > 100 | – | – | – | – | – | – | – | – | – | – | – |
| CCONCc1ccc(OCCC(C)CCN2CCN(c3ccnc(N)c3)C2=O)cc1 (stereo not given) | 0.0119 | 7.37 | – | – | – | – | – | – | – | – | – | – | – |
| CCO/N=C/c1ccc(OCCCCCN2CCN(c3ccnc(N)c3)C2=O)cc1 | 0.072 | 59 | 100 | 20 | 0 | 100 | 20 | 100 | 100 | 100 | 100 | 100 | – |
| CCCc1nc(-c2cc(C)c(OCCC(C)CCN3CCN(c4ccnc(N)c4)C3=O)c(C)c2)no1 (stereo not given) | > 25 | 14.1 | – | – | – | – | – | – | – | – | – | – | – |
| Cc1cc(-c2noc(C(F)(F)F)n2)cc(C)c1OCCC(C)CCN1CCN(c2ccnc(N)c2)C1=O (stereo not given) | > 25 | > 100 | – | – | – | – | – | – | – | – | – | – | – |
| CCO/N=C/c1ccc(OCCC(C)CCN2CCN(c3ccnc(OC)c3)C2=O)cc1 (stereo not given) | 10 | > 100 | 100 | 100 | 100 | 100 | 100 | 100 | 100 | 100 | 100 | 100 | – |
| CCO/N=C/c1ccc(OCC#CCN2CCN(c3ccnc(N)c3)C2=O)cc1 | > 25 | > 100 | – | – | – | – | – | – | – | – | – | – | – |
| Cc1nc(-c2ccc(OCCC(C)CCN3CCN(c4ccnc(N)c4)C3=O)cc2)no1 (stereo not given) | 0.0061 | 66.1 | 100 | 0 | 0 | 0 | 0 | 0 | 100 | 100 | 10 | 100 | – |
| CCO/N=C/c1ccc(OCCCCN2CCN(c3ccnc(N)c3)C2=O)cc1 | > 25 | > 100 | – | – | – | – | – | – | – | – | – | – | – |
| CC(CCOc1ccc(-c2noc(C(C)(C)C)n2)cc1)CCN1CCN(c2ccnc(N)c2)C1=O (stereo not given) | 0.0092 | 55 | 100 | 0 | 0 | 80 | 0 | 0 | 100 | 100 | 100 | 100 | Toxic |
| Cc1nc(-c2cc(C)c(OCCC(C)CCN3CCN(c4ccnc(N)c4)C3=O)c(C)c2)no1 (stereo not given) | > 25 | 28.8 | – | – | – | – | – | – | – | – | – | – | – |
| CCONC(=O)c1ccc(OCCC(C)CCN2CCN(c3ccnc(N)c3)C2=O)cc1 (stereo not given) | > 25 | > 100 | – | – | – | – | – | – | – | – | – | – | – |

Reference: ChEMBL document CHEMBL4376886, “Design, Synthesis, and Evaluation of Novel Enterovirus 71 Inhibitors as Therapeutic Drug Leads for the Treatment of Human Hand, Foot, and Mouth Disease” (J Med Chem, 2020)
